Measurements from PubChem BioAssay (NCI).
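The concentration for 50% growth inhibition is given as GI50. TGI: concentration producing complete growth inhibition.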

Columns and labels:
Test in all cases: NCI tumour cell line growth inhibition, 384-well format
SW-620 colon = test system: SW-620 colon
PC-3 prostate = test system: PC-3 prostate
SF-539 CNS = test system: SF-539 CNS
LOX IMVI melanoma = test system: LOX IMVI melanoma
SNB-19 CNS = test system: SNB-19 CNS
U251 glioblastoma = test system: U251 glioblastoma
DU-145 prostate = test system: DU-145 prostate
HT29 colon = test system: HT29 colon
A549 NSCLC = test system: A549 NSCLC
HOP-62 NSCLC = test system: HOP-62 NSCLC
RPMI-8226 leukemia = test system: RPMI-8226 leukemia
UACC-62 melanoma = test system: UACC-62 melanoma
SR leukemia = test system: SR leukemia
OVCAR-5 ovarian = test system: OVCAR-5 ovarian
HOP-92 NSCLC = test system: HOP-92 NSCLC
786-0 renal = test system: 786-0 renal
CAKI-1 renal = test system: CAKI-1 renal
TK-10 renal = test system: TK-10 renal
MCF7 breast = test system: MCF7 breast
BT-549 breast = test system: BT-549 breast
ACHN renal = test system: ACHN renal
IGROV1 ovarian = test system: IGROV1 ovarian
T-47D breast = test system: T-47D breast
MOLT-4 leukemia = test system: MOLT-4 leukemia
MDA-MB-231 breast = test system: MDA-MB-231 breast
SF-268 CNS = test system: SF-268 CNS
K-562 leukemia = test system: K-562 leukemia
OVCAR-3 ovarian = test system: OVCAR-3 ovarian
MDA-MB-435 melanoma = test system: MDA-MB-435 melanoma
SN12C renal = test system: SN12C renal
SK-MEL-2 melanoma = test system: SK-MEL-2 melanoma
UO-31 renal = test system: UO-31 renal
UACC-257 melanoma = test system: UACC-257 melanoma
NCI-H460 NSCLC = test system: NCI-H460 NSCLC
RXF 393 renal = test system: RXF 393 renal
A498 renal = test system: A498 renal
SK-MEL-28 melanoma = test system: SK-MEL-28 melanoma
HL-60(TB) leukemia = test system: HL-60(TB) leukemia
MALME-3M melanoma = test system: MALME-3M melanoma
HCC-2998 colon = test system: HCC-2998 colon
SF-295 CNS = test system: SF-295 CNS
NCI-H226 lung = test system: NCI-H226 lung
SK-MEL-5 melanoma = test system: SK-MEL-5 melanoma
M14 melanoma = test system: M14 melanoma
OVCAR-4 ovarian = test system: OVCAR-4 ovarian
SK-OV-3 ovarian = test system: SK-OV-3 ovarian
NCI/ADR-RES ovarian = test system: NCI/ADR-RES ovarian
MDA-MB-468 breast = test system: MDA-MB-468 breast
HCT-15 colon = test system: HCT-15 colon
NCI-H23 lung = test system: NCI-H23 lung
NCI-H322M lung = test system: NCI-H322M lung
OVCAR-8 ovarian = test system: OVCAR-8 ovarian
NCI-H522 lung = test system: NCI-H522 lung
HCT-116 colon = test system: HCT-116 colon
KM12 colon = test system: KM12 colon
CCRF-CEM leukemia = test system: CCRF-CEM leukemia
COLO 205 colon = test system: COLO 205 colon

Work on `C[C@H](CCOc1cccc(CC(=O)O)c1)N(Cc1cccc(C(F)(F)F)c1Cl)CC(c1ccccc1)c1ccccc1` yielded a GI50 (SW-620 colon) of 4.66 µM, a TGI (SW-620 colon) of 15.7 µM and a GI50 (PC-3 prostate) of 4.33 µM. It also gave a TGI (PC-3 prostate) of 13.1 µM, a GI50 (SF-539 CNS) of 3.92 µM and a TGI (SF-539 CNS) of 14.2 µM. The GI50 (LOX IMVI melanoma) was 4.34 µM, the TGI (LOX IMVI melanoma) was 17.5 µM and the GI50 (SNB-19 CNS) was 4.66 µM. It also gave a TGI (SNB-19 CNS) of 14 µM, a GI50 (U251 glioblastoma) of 2690 nM and a TGI (U251 glioblastoma) of 7.64 µM. The GI50 (DU-145 prostate) was 5.06 µM, the TGI (DU-145 prostate) was 16.5 µM and the GI50 (HT29 colon) was 4.23 µM. For the same molecule, the TGI (HT29 colon) was 16.2 µM, the GI50 (A549 NSCLC) was 3.46 µM and the TGI (A549 NSCLC) was 12 µM. For the same molecule, the GI50 (HOP-62 NSCLC) was 3.86 µM, the TGI (HOP-62 NSCLC) was 12.9 µM and the GI50 (RPMI-8226 leukemia) was 1500 nM. For the same molecule, the TGI (RPMI-8226 leukemia) was 2930 nM, the GI50 (UACC-62 melanoma) was 9.52 µM and the TGI (UACC-62 melanoma) was 21.4 µM. The GI50 (SR leukemia) was 1730 nM, the TGI (SR leukemia) was 3.16 µM and the GI50 (OVCAR-5 ovarian) was 11.2 µM. It also gave a TGI (OVCAR-5 ovarian) of 23.3 µM, a GI50 (HOP-92 NSCLC) of 2970 nM and a TGI (HOP-92 NSCLC) of 8.88 µM. For the same molecule, the GI50 ([…]-0 renal) was 4.3 µM, the TGI (786-0 renal) was 15.4 µM and the GI50 (CAKI-1 renal) was 6.37 µM. It also gave a TGI (CAKI-1 renal) of 18.5 µM, a GI50 (TK-10 renal) of 6.54 µM and a TGI (TK-10 renal) of 18.8 µM. The GI50 (MCF7 breast) was 3.9 µM, the TGI (MCF7 breast) was 14 µM and the GI50 (BT-549 breast) was 3.27 µM. For the same molecule, the TGI (BT-549 breast) was 12.7 µM, the GI50 (ACHN renal) was 5 µM and the TGI (ACHN renal) was 16.1 µM. For the same molecule, the GI50 (IGROV1 ovarian) was 5.92 µM, the TGI (IGROV1 ovarian) was 18.5 µM and the GI50 (T-47D breast) was 1840 nM. For the same molecule, the TGI (T-47D breast) was 10 µM, the GI50 (MOLT-4 leukemia) was 1610 nM and the TGI (MOLT-4 leukemia) was 3.15 µM. For the same molecule, the GI50 (MDA-MB-231 breast) was 10.2 µM, the TGI (MDA-MB-231 breast) was 21.9 µM and the GI50 (SF-268 CNS) was 3.04 µM. It also gave a TGI (SF-268 CNS) of 11 µM, a GI50 (K-562 leukemia) of 3.55 µM and a TGI (K-562 leukemia) of 13.4 µM. The GI50 (OVCAR-3 ovarian) was 2790 nM, the TGI (OVCAR-3 ovarian) was 7.28 µM and the GI50 (MDA-MB-435 melanoma) was 10.9 µM. It also gave a TGI (MDA-MB-435 melanoma) of 23 µM, a GI50 (SN12C renal) of 5.1 µM and a TGI (SN12C renal) of 16.2 µM. The GI50 (SK-MEL-2 melanoma) was 14 µM, the TGI (SK-MEL-2 melanoma) was 27 µM and the GI50 (UO-31 renal) was 5.07 µM. The TGI (UO-31 renal) was 16.7 µM, the GI50 (UACC-257 melanoma) was 3.35 µM and the TGI (UACC-257 melanoma) was 13 µM. It also gave a GI50 (NCI-H460 NSCLC) of 3.5 µM, a TGI (NCI-H460 NSCLC) of 11.3 µM and a GI50 (RXF 393 renal) of 2100 nM. The TGI (RXF 393 renal) was 5.24 µM, the GI50 (A498 renal) was 4.51 µM and the TGI (A498 renal) was 15.6 µM. For the same molecule, the GI50 (SK-MEL-28 melanoma) was 15.8 µM, the TGI (SK-MEL-28 melanoma) was 29.3 µM and the GI50 (HL-60(TB) leukemia) was 2260 nM. For the same molecule, the TGI (HL-60(TB) leukemia) was 4.22 µM, the GI50 (MALME-3M melanoma) was 15 µM and the TGI (MALME-3M melanoma) was 28.3 µM. It also gave a GI50 (HCC-2998 colon) of 2580 nM, a TGI (HCC-2998 colon) of 7.25 µM and a GI50 (SF-295 CNS) of 2640 nM. It also gave a TGI (SF-295 CNS) of 7.41 µM, a GI50 (NCI-H226 lung) of 4.17 µM and a TGI (NCI-H226 lung) of 15.7 µM. The GI50 (SK-MEL-5 melanoma) was 3.29 µM, the TGI (SK-MEL-5 melanoma) was 11.1 µM and the GI50 (M14 melanoma) was 5.84 µM. It also gave a TGI (M14 melanoma) of 18.2 µM, a GI50 (OVCAR-4 ovarian) of 5.04 µM and a TGI (OVCAR-4 ovarian) of 18.2 µM. For the same molecule, the GI50 (SK-OV-3 ovarian) was 9.13 µM, the TGI (SK-OV-3 ovarian) was 21.2 µM and the GI50 (NCI/ADR-RES ovarian) was 3.54 µM. It also gave a TGI (NCI/ADR-RES ovarian) of 12.5 µM, a GI50 (MDA-MB-468 breast) of 3.06 µM and a TGI (MDA-MB-468 breast) of 7.76 µM. The GI50 (HCT-15 colon) was 3.83 µM, the TGI (HCT-15 colon) was 13 µM and the GI50 (NCI-H23 lung) was 2280 nM. It also gave a TGI (NCI-H23 lung) of 5.31 µM, a GI50 (NCI-H322M lung) of 4.7 µM and a TGI (NCI-H322M lung) of 17.3 µM. For the same molecule, the GI50 (OVCAR-8 ovarian) was 4.56 µM, the TGI (OVCAR-8 ovarian) was 15.4 µM and the GI50 (NCI-H522 lung) was 2550 nM. It also gave a TGI (NCI-H522 lung) of 9.37 µM, a GI50 (HCT-116 colon) of 3000 nM and a TGI (HCT-116 colon) of 11.2 µM. The GI50 (KM12 colon) was 3.76 µM, the TGI (KM12 colon) was 12.5 µM and the GI50 (CCRF-CEM leukemia) was 1720 nM. The TGI (CCRF-CEM leukemia) was 4.13 µM, the GI50 (COLO 205 colon) was 8.19 µM and the TGI (COLO 205 colon) was 20.5 µM.
